{
  "source": "patent US20250144067A1",
  "about": "“PERSONALIZED STARVATION THERAPY FOR CANCER” (Faeth Therapeutics, Inc., priority 2021, published 2025)",
  "key": {"[1]": {"system": "NCI-H292 lung cancer cells", "experiment": "FDA drug screening, complete media vs cholesterol-free media without statin (TABLE 1)", "format": "cell-based, human"}, "[2]": {"system": "NCI-H292 lung cancer cells", "experiment": "FDA drug screening, complete media vs cholesterol-free media with simvastatin (TABLE 2)", "format": "cell-based, human", "settings": "for Cholesterol-free media + simvastatin (0.04 μM) / Complete Media: NCI-H292 cells"}, "[3]": {"settings": "drug in cholesterol-free media with simvastatin 0.04 μM"}, "[4]": {"settings": "complete media vs cholesterol-free media + simvastatin (0.04 μM), >0 enhanced anti-cancer activity, about 0 neutral, <0 antagonist"}, "[5]": {"settings": "NCI-H292 cells, cholesterol-free media without statin"}, "[6]": {"settings": "complete vs cholesterol-free media, greater than 0 enhanced anti-cancer activity, about 0 neutral, below 0 antagonists"}, "[7]": {"settings": "FDA drug library screen, cholesterol-free media with simvastatin 0.04 μM"}, "[8]": {"settings": "FDA drug library screen, complete media"}, "[9]": {"settings": "NCI-H292 cells, cholesterol-free media without statin, FDA drug library screen"}, "[10]": {"settings": "NCI-H292 cells, complete media, FDA drug library screen"}, "[11]": {"settings": "complete vs cholesterol-free media, >0 enhanced anti-cancer activity, about 0 neutral, <0 antagonist"}, "[12]": {"settings": "NCI-H292 cells, FDA drug library screen, cholesterol-free media without statin"}, "[13]": {"settings": "NCI-H292 cells, FDA drug library screen, complete media"}, "[14]": {"settings": "FDA library drug in cholesterol-free media with simvastatin 0.04 μM"}, "[15]": {"settings": "FDA library drug in complete media"}, "[16]": {"settings": "Complete minus Cholesterol-free, greater than 0 enhanced anti-cancer activity, about 0 neutral, below 0 antagonist"}, "[17]": {"settings": "Complete minus Cholesterol-free, >0 enhanced anti-cancer activity, about 0 neutral, <0 antagonist"}, "[18]": {"settings": "complete media minus cholesterol-free media + simvastatin, >0 enhanced anti-cancer activity, about 0 neutral, <0 antagonist"}, "[19]": {"settings": "cholesterol-free media with simvastatin 0.04 μM, cell growth value in FDA drug screen"}, "[20]": {"settings": "complete media, cell growth value in FDA drug screen"}},
  "note": "Counter-ions that a name gives are not always drawn.",
  "data": [
    {"molecule": "FC(F)(F)c1ccc(CNc2ccc(Cc3c[nH]c4ncc(Cl)cc34)cn2)cn1", "note": "[Pexidartinib]", "values": [
      {"measurement": "Difference", "setting": "[1]; Complete minus Cholesterol-free, greater than 0 enhanced anti-cancer activity, about 0 neutral, below 0 antagonists", "result": "−0.77"},
      {"measurement": "Cholesterol-free", "setting": "[1]; NCI-H292 cells in cholesterol-free media without statin", "result": 1.609},
      {"measurement": "Complete", "setting": "[1]; NCI-H292 cells in complete media", "result": 0.8353},
      {"measurement": "Cholesterol-free media + simvastatin (0.04 μM)", "setting": "[2]; [3]", "result": 1.767},
      {"measurement": "Complete Media", "setting": "[2]; drug in complete media", "result": 1.579},
      {"measurement": "Difference", "setting": "[2]; [4]", "result": "−0.19"}
    ]},
    {"molecule": "Cn1c(=O)c2[nH]cnc2n(C)c1=O", "note": "[Theophylline]", "values": [
      {"measurement": "Cholesterol-free", "setting": "[1]; [5]", "result": 1.592},
      {"measurement": "Complete", "setting": "[1]; NCI-H292 cells, complete media", "result": 1.176},
      {"measurement": "Difference", "setting": "[1]; [6]", "result": "−0.42"},
      {"measurement": "Cholesterol-free media + simvastatin (0.04 μM)", "setting": "[2]; [7]", "result": 1.182},
      {"measurement": "Complete Media", "setting": "[2]; [8]", "result": 1.026},
      {"measurement": "Difference", "setting": "[2]; [4]", "result": "−0.16"}
    ]},
    {"molecule": "CCc1nc(N)nc(N)c1-c1ccc(Cl)cc1", "note": "[Pyrimethamine]", "values": [
      {"measurement": "Cholesterol-free", "setting": "[1]; [9]", "result": 1.197},
      {"measurement": "Complete", "setting": "[1]; [10]", "result": 1.426},
      {"measurement": "Difference", "setting": "[1]; [11]", "result": 0.23},
      {"measurement": "Cholesterol-free media + simvastatin (0.04 μM)", "setting": "[2]; [3]", "result": 1.205},
      {"measurement": "Complete Media", "setting": "[2]; drug in complete media", "result": 1.02},
      {"measurement": "Difference", "setting": "[2]; [4]", "result": "−0.19"}
    ]},
    {"molecule": "CC(=O)O.CN1C(=O)C[C@@H](C(=O)N[C@@H](Cc2cnc[nH]2)C(=O)N2CCC[C@H]2C(N)=O)NC1=O", "note": "[Taltirelin (acetate)]", "values": [
      {"measurement": "Difference", "setting": "[1]; Complete minus Cholesterol-free, […]", "result": "−0.12"},
      {"measurement": "Cholesterol-free", "setting": "[1]; [12]", "result": 1.092},
      {"measurement": "Complete", "setting": "[1]; [13]", "result": 0.9679},
      {"measurement": "Cholesterol-free media + simvastatin (0.04 μM)", "setting": "[2]; [7]", "result": 1.154},
      {"measurement": "Complete Media", "setting": "[2]; [8]", "result": 1.062},
      {"measurement": "Difference", "setting": "[2]; complete media vs cholesterol-free media + simvastatin (0.04 μM), […]", "result": "−0.09"}
    ]},
    {"molecule": "Cc1ccc(Sc2ccccc2N2CCNCC2)c(C)c1", "note": "[Vortioxetine]", "values": [
      {"measurement": "Cholesterol-free", "setting": "[1]; [9]", "result": 0.5855},
      {"measurement": "Complete", "setting": "[1]; [10]", "result": 0.993},
      {"measurement": "Difference", "setting": "[1]; [11]", "result": 0.41},
      {"measurement": "Cholesterol-free media + simvastatin (0.04 μM)", "setting": "[2]; [14]", "result": 1.222},
      {"measurement": "Complete Media", "setting": "[2]; [15]", "result": 0.843},
      {"measurement": "Difference", "setting": "[2]; [4]", "result": "−0.38"}
    ]},
    {"molecule": "COC(=O)N[C@H](C(=O)N1CC2(CC2)C[C@H]1c1nc(-c2ccc3c(c2)C(F)(F)c2cc(-c4ccc5[nH]c([C@@H]6[C@H]7CC[C@H](C7)N6C(=O)[C@@H](NC(=O)OC)C(C)C)nc5c4)ccc2-3)c[nH]1)C(C)C", "note": "[Ledipasvir (acetone)]", "values": [
      {"measurement": "Difference", "setting": "[1]; [16]", "result": "−0.13"},
      {"measurement": "Cholesterol-free", "setting": "[1]; [12]", "result": 0.5672},
      {"measurement": "Complete", "setting": "[1]; [13]", "result": 0.4332},
      {"measurement": "Cholesterol-free media + simvastatin (0.04 μM)", "setting": "[2]; [14]", "result": 1.383},
      {"measurement": "Complete Media", "setting": "[2]; [15]", "result": 0.9707},
      {"measurement": "Difference", "setting": "[2]; [4]", "result": "−0.41"}
    ]},
    {"molecule": "(−)-Sparteine (sulfate pentahydrate)", "values": [
      {"measurement": "Cholesterol-free", "setting": "[1]; [5]", "result": 1.28},
      {"measurement": "Complete", "setting": "[1]; NCI-H292 cells, complete media", "result": 0.8579},
      {"measurement": "Difference", "setting": "[1]; complete vs cholesterol-free media, […]", "result": "−0.42"},
      {"measurement": "Cholesterol-free media + simvastatin (0.04 μM)", "setting": "[2]; cholesterol-free media with simvastatin 0.04 μM, […]", "result": 0.83},
      {"measurement": "Complete Media", "setting": "[2]; complete media, […]", "result": 0.9345},
      {"measurement": "Difference", "setting": "[2]; complete media minus cholesterol-free media + simvastatin, […]", "result": 0.10}
    ]},
    {"molecule": "C[C@]12CCC(=O)C=C1C=C[C@@H]1[C@@H]2CC[C@@]2(C)[C@H]1CC[C@@]21CCC(=O)O1", "note": "[Canrenone]", "values": [
      {"measurement": "Difference", "setting": "[1]; [17]", "result": "−0.20"},
      {"measurement": "Cholesterol-free", "setting": "[1]; [5]", "result": 1.047},
      {"measurement": "Complete", "setting": "[1]; NCI-H292 cells, complete media", "result": 0.8458},
      {"measurement": "Cholesterol-free media + simvastatin (0.04 μM)", "setting": "[2]; [7]", "result": 1.098},
      {"measurement": "Complete Media", "setting": "[2]; [8]", "result": 1.452},
      {"measurement": "Difference", "setting": "[2]; [18]", "result": 0.35}
    ]},
    {"molecule": "c1ccc(C2CN3CCSC3=N2)cc1", "note": "(centres unmarked) [Tetramisole (hydrochloride)]", "values": [
      {"measurement": "Cholesterol-free", "setting": "[1]; [5]", "result": 1.362},
      {"measurement": "Complete", "setting": "[1]; NCI-H292 cells, complete media", "result": 0.9185},
      {"measurement": "Difference", "setting": "[1]; [6]", "result": "−0.44"},
      {"measurement": "Cholesterol-free media + simvastatin (0.04 μM)", "setting": "[2]; cholesterol-free media with simvastatin 0.04 μM, FDA drug library screen (TABLE 2)", "result": 1.011},
      {"measurement": "Complete Media", "setting": "[2]; complete media, FDA drug library screen (TABLE 2)", "result": 0.9757},
      {"measurement": "Difference", "setting": "[2]; complete media minus cholesterol-free media + simvastatin (0.04 μM), >0 enhanced anti-cancer activity, about 0 neutral, <0 antagonist", "result": "−0.04"}
    ]},
    {"molecule": "Cc1ccc(C(=O)C(C)CN2CCCCC2)cc1", "note": "(centres unmarked) [Tolperisone (hydrochloride)]", "values": [
      {"measurement": "Difference", "setting": "[1]; [17]", "result": 0.07},
      {"measurement": "Cholesterol-free", "setting": "[1]; [9]", "result": 1.37},
      {"measurement": "Complete", "setting": "[1]; [10]", "result": 1.436},
      {"measurement": "Cholesterol-free media + simvastatin (0.04 μM)", "setting": "[2]; [19]", "result": 0.9156},
      {"measurement": "Complete Media", "setting": "[2]; [20]", "result": 0.9664},
      {"measurement": "Difference", "setting": "[2]; [18]", "result": 0.05}
    ]},
    {"molecule": "Pyrantel (tartrate)", "values": [
      {"measurement": "Difference", "setting": "[1]; [16]", "result": "−0.17"},
      {"measurement": "Complete", "setting": "[1]; [13]", "result": 0.9815},
      {"measurement": "Cholesterol-free media + simvastatin (0.04 μM)", "setting": "[2]; [14]", "result": 1.712},
      {"measurement": "Complete Media", "setting": "[2]; [15]", "result": 1.209},
      {"measurement": "Difference", "setting": "[2]; [4]", "result": "−0.50"}
    ]},
    {"molecule": "COc1ccc2cc([C@H](C)C(=O)O)ccc2c1", "note": "[Naproxen]", "values": [
      {"measurement": "Difference", "setting": "[1]; [17]", "result": "−0.23"},
      {"measurement": "Cholesterol-free", "setting": "[1]; [5]", "result": 1.155},
      {"measurement": "Complete", "setting": "[1]; NCI-H292 cells, complete media", "result": 0.9257},
      {"measurement": "Cholesterol-free media + simvastatin (0.04 μM)", "setting": "[2]; [19]", "result": 0.9241},
      {"measurement": "Complete Media", "setting": "[2]; [20]", "result": 1.007},
      {"measurement": "Difference", "setting": "[2]; [18]", "result": 0.08}
    ]},
    {"molecule": "C=C[C@H]1C[N@@]2CC[C@H]1C[C@H]2[C@H](O)c1ccnc2ccc(OC)cc12", "note": "[Quinine (hydrochloride dihydrate)]", "values": [
      {"measurement": "Difference", "setting": "[1]; [17]", "result": 0.03},
      {"measurement": "Cholesterol-free media + simvastatin (0.04 μM)", "setting": "[2]; [7]", "result": 1.208},
      {"measurement": "Difference", "setting": "[2]; [4]", "result": "−0.15"}
    ]},
    {"molecule": "CC(c1cc2ccccc2s1)N(O)C(N)=O", "note": "(centres unmarked) [Zileuton]", "values": [
      {"measurement": "Difference", "setting": "[1]; [17]", "result": "−0.21"},
      {"measurement": "Cholesterol-free", "setting": "[1]; [5]", "result": 1.451},
      {"measurement": "Complete", "setting": "[1]; NCI-H292 cells, complete media", "result": 1.238},
      {"measurement": "Cholesterol-free media + simvastatin (0.04 μM)", "setting": "[2]; [3]", "result": 1.302},
      {"measurement": "Complete Media", "setting": "[2]; drug in complete media", "result": 1.066},
      {"measurement": "Difference", "setting": "[2]; [4]", "result": "−0.24"}
    ]}
  ]
}
